# Source: PMC3948889, “The Effects of LPM570065, a Novel Triple Reuptake Inhibitor, on Extracellular Serotonin, Dopamine and Norepinephrine Levels in Rats” (PLoS ONE, 2014)
# Read-outs that look alike come from different tables or passages of the source.
# Experiments:
# [1] = tested on: immobility time in the forced swim test; settings: without significantly altering locomotor activity, cited from earlier work
# [2] = tested on: immobility time in the forced swim test; settings: tested 0.5, 1, 2 and 4 h post-dosing
# Protocol: Forced swim test was used to measure the depression-like behavior in rats after acute and chronic drug treatment. Animals were randomly divided into six groups. The animals in Groups 1, 2 and 3 were used for acute treatment, and the animals in Groups 4, 5 and 6 were used for chronic treatment (once a day for 14 days). […] The entire test was performed in 2 consecutive days: a 15-min pretest session on day 1 followed by a 5-min test session the next day. On the pretest day, rats were individually forced to swim for 15 min in a plastic cylinder (diameter 22 cm, height 46 cm) containing water (25±1°C) with a depth of 30 cm. On the test day, rats were placed in the cylinder again for a 5-min test trial at 0.5, 1, 2 and 4 h post-dosing (n = 10 rats per time point in each group). The total duration of immobilization was recorded. The criterion for immobilization was vertical floating in the water and movements necessary to keep the head above the water. After the test, animals were removed and dried with towels before returning to their home cage.
# [3] = tested on: extracellular DA levels in the rat striatum; experiment: microdialysis: extracellular DA levels in the rat striatum
# [4] = tested on: extracellular NE levels in the rat striatum; experiment: microdialysis: extracellular NE levels in the rat striatum
# [5] = tested on: extracellular 5-HT levels in the rat striatum; experiment: microdialysis: extracellular 5-HT levels in the rat striatum
# [6] = chronic oral suspension 0.06 mmol·kg^−1·day^−1 for 14 days
# [7] = acute oral administration (oral solution, oral suspension 0.06 mmol·kg^−1)
structure (smiles),measurement,setting,value
CC(NC(C)(C)C)C(=O)c1cccc(Cl)c1 (stereo not shown) [bupropion],immobility time in the forced swim test,[1]; 10 mg/kg,reduce the immobility time
CN(C)CC(c1ccc(O)cc1)C1(O)CCCCC1 (stereo not shown) [desvenlafaxine],immobility time in the forced swim test vs. vehicle,[2]; acute oral suspension 0.06 mmol·kg^−1,only significantly reduced the immobility time at 1 h
same,immobility time in the forced swim test vs. vehicle,[2]; [6],significantly reduced the immobility time
same,effect on extracellular DA levels,"[3]; acute, oral administration or intravenous administration",did not significantly alter the extracellular DA levels
same,effect on extracellular DA levels,[3]; [6],did not significantly alter the extracellular DA levels
same,effect on extracellular NE levels vs. relative vehicle,[4]; acute intravenous administration 0.04 mmol·kg^−1,marked and significant increases
same,effect on extracellular NE levels vs. relative vehicle,[4]; [7],slight but significant increases
same,extracellular NE peak value (% of basal),"[4]; chronic oral suspension 0.06 mmol·kg^−1·day^−1 for 14 days, at 60 min",139±9%
same,extracellular 5-HT levels increased to (% of basal),"[5]; acute intravenous solution 0.04 mmol·kg^−1, after the initial 90 min decrease, then returned to basal",162±15%
same,decrease in extracellular 5-HT levels,"[5]; acute intravenous solution 0.04 mmol·kg^−1, during the first 90 min post-dosing",90%
same,effect on extracellular 5-HT levels vs. relative vehicle,[5]; [7],slight but significant increases
same,increase in 5-HT AUC0–240 min value of the vehicle group,[5]; [6],187±25%
CN1Cc2c(N)cccc2C(c2ccccc2)C1 (stereo not shown) [nomifensine],immobility time in the forced swim test,[1]; 2.5 mg/kg,reduce the immobility time
